This is an account of results in ChEMBL document CHEMBL1151065, “Antiproliferative activity of haloosmocenium ions against human and murine cancer cell lines” (Bioorg Med Chem Lett, 1994).

One series has as its system COLO 320. The series is described as follows: Antiproliferative effect against human COLO 320 colon adenocarcinoma cells. Type of series: functional, cell-based.
In another series the test system is NIH3T3. Put plainly: Antiproliferative effect against mouse NIH3T3 embryonic cells. Type of series: functional, cell-based.
Series [1] has as its system LX-830 cell line. Put plainly: Antiproliferative effect against mouse LX830 lymphoma cells. The class given is functional, cell-based.
Another series deals with HL-60. The series is described as follows: Antiproliferative effect against human HL60 promyelocytic leukemia cells. The class given is functional, cell-based.
A further series deals with Daudi. The series is described as follows: Antiproliferative effect against human Daudi Burkitt lymphoma cells. The class given is functional, cell-based.
Series [2] concerns U-937. Put plainly: Antiproliferative effect against human U937 histiocytic lymphoma cells. The class given is functional, cell-based.
The subject of another series is CCRF S-180. The series is described as follows: Antiproliferative effect against mouse S180 sarcoma cells. The class given is functional, cell-based.
Series [3] concerns U-937. Put plainly: Rate of oxygen consumption of human U937 cells (10e7 cells) at 10 uM concentration was determined at 30degreeC, with control value 14.5. Type of series: functional, cell-based.
The nature of series [4]: Redox potential from cyclic voltammogram. The class given is physicochemical.
Series [5] relates to LX-830 cell line. Put plainly: Antiproliferative effect against mouse LX830 lymphoma cells; inactive. Type of series: functional, cell-based.
Series [6] in a line: Rate of oxidation by the compound at 0.5 mM versus 0.24 mM of NADH was determined.
Series [7] is described as follows: Rate of oxidation by the compound at 0.44 mM versus 0.49 mM of reduced cytochrome was determined at 30 degree C.
Series [8] deals with U-937. The series is described as follows: Rate of oxygen consumption of human U937 cells (10e7 cells) at 200 uM concentration was determined at 30 degree C. Type of series: functional, cell-based.

On to CISPLATIN [listing 1 of 2 here], for which the half-inhibitory concentration (IC50) in the series with COLO 320 is 6.6 µM; in the series on NIH3T3 it was 0.3 µM; with LX-830 cell line [1] it was 13.2 µM; in the series on HL-60, 4.3 µM; in the series on Daudi, 1.7 µM; in the series on U-937 [2], 5.2 µM. This substance returned an IC50 with CCRF S-180 of 0.8 µM.
With CISPLATIN [listing 2 of 2 here], in the series on U-937 [3], the Oxygen consumption rate is 13.4 nM/min.
With “osmium(2+) ion bis(cyclopenta-1,3-diene) hexafluoro-phosphanuide iodide [listing 1 of 2 here]”, the IC50 in the series on COLO 320 was over 200 µM; in the series on NIH3T3, 87 µM; in the series with HL-60, 75 µM; in the series on Daudi it was 79 µM; in the series with LX-830 cell line [5], “Not Active”; in the series with U-937 [2], 196 µM. This substance also came in with an IC50 with CCRF S-180 of 120 µM. Further, the E0 in series [4] came out at 0.46.
Turning to “osmium(2+) ion bis(cyclopenta-1,3-diene) hexafluoro-phosphanuide iodide [listing 2 of 2 here]”, the Oxidation rate in series [6] came to 8 µM/min; in [7] it was 824 nM/min. Besides, in the series on U-937 [8], the Oxygen consumption rate stood at 10.5 nM/min.

As a reminder, the IC50 is the point on the concentration scale where inhibition reaches its midpoint. A high value points to lower potency.
